# Source: US8420144B2, “Kokumi-imparting agent, method of using, and compositions containing same” (Ajinomoto Co., Inc., priority 2005, dated 2013)
# Numbered stars: 1 amine (or outer) side, 2 acyl side, 3 side chain; on linkers, the order of the positions; unused ones are H or OH. Square brackets hold non-standard residues; d marks the D form. Ends that are not written are not given here. γGlu = O=C(O)[C@H](CCC(=O)[*:2])N[*:1]; Orn = NCCC[C@H](N)C(=O)O; Abu = CC[C@H](N)C(=O)O
# Columns and labels:
# human calcium receptor = target: T1, human calcium receptor (Homo sapiens, UniProt P41180); experiment: Calcium receptor activation activity: Ca ion concentration-dependent Cl ionic current in Xenopus laevis oocyte expression system; assay type: cell-based; conditions: for Activity (lowest concentration for which current was detected): added at 1000, 300, 100, 30, 10, 3, 1, 0.3 and 0.1 μM; for calcium receptor activation activity (Ca ion concentration-dependent Cl response current): oocytes voltage-clamped at −70 mV
# T1 construct: expressed in transfected cells; host or cells: Xenopus laevis oocytes microinjected with cRNA; gene amplified by PCR from human kidney cDNA (Clontech)
# T1 sequence (P41180 20-1078): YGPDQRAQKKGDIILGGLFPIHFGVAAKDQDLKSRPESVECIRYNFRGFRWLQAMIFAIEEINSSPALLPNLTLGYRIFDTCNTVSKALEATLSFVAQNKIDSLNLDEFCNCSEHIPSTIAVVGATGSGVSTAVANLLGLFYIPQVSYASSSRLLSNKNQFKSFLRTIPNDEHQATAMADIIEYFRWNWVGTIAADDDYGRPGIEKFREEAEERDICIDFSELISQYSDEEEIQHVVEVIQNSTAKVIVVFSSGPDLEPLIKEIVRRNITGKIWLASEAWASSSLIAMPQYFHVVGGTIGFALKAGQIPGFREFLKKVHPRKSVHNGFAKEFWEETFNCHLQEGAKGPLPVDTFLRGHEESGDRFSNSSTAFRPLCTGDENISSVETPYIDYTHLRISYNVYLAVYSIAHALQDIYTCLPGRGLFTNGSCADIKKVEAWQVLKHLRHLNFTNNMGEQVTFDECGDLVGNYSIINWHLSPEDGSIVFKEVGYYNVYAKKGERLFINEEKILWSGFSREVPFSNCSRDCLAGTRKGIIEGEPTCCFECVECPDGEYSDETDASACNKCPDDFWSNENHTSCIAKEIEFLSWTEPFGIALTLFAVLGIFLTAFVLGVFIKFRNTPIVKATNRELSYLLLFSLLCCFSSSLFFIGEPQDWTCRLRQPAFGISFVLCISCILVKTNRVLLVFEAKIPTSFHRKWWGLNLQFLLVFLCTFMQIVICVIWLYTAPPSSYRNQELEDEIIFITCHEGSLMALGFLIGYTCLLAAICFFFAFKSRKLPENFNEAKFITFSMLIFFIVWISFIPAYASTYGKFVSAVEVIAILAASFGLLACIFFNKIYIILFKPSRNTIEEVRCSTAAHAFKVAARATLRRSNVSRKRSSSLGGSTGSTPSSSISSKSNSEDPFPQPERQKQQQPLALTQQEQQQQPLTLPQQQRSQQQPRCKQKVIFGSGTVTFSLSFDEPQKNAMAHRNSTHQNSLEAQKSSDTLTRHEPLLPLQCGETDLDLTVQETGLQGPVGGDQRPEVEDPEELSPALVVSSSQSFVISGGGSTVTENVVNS
# Procedure: To evaluate calcium receptor activation activity, a Ca ion concentration-dependent Cl ionic current measuring method using a Xenopus laevis oocyte expression system was used. If each activator is added to Xenopus laevis oocytes expressing the calcium receptor, intracellular Ca ions increase. Then, the Ca ion concentration-dependent Cl channel opens, and the intracellular current value changes as an ionic current. By measuring the change in this intracellular current value, the presence or absence of calcium receptor activation activity can be determined.
# Specifically, the abdomen of Xenopus laevis was opened, and an egg batch was taken out and treated with a 1% collagenase solution at 20° C. for 2 hours to obtain individual oocytes. Into the oocytes, 50 nl of 1 μg/μl receptor cRNA or 50 nl of sterilized water per oocyte was introduced by using a micro glass capillary, and the oocytes were cultured at 18° C. for 2 or 3 days. For the culture, a solution obtained by adding 2 mM pyruvic acid, 10 U/ml of penicillin, and 10 μg/ml of streptomycin to the solution in Example 2 was used. After the culture, a test solution was added to the oocytes containing either the cRNA or sterilized water. Electrophysiological measurement was performed by using an amplifier, Geneclamp500 (Axon), and recording software, AxoScope 9.0 (Axon). The oocytes were voltage-clamped at −70 mV by the double electrode voltage clamp method, and the intracellular current was measured via the Ca ion concentration-dependent Cl ion channel. The maximum value of the intracellular current was considered as the response current value.
# Calcium receptor activation activity of L-amino acids was evaluated by using the method described in Example 13. That is, oocytes containing either cRNA of the calcium receptor or sterilized water were prepared, and voltage-clamped at −70 mV by the double electrode voltage clamp method. To the voltage-clamped oocytes, alanine (10 mM), arginine (10 mM), asparagine (10 mM), aspartic acid (10 mM), cysteine (10 mM), glutamine (10 mM), glutamic acid (10 mM), glycine (10 mM), histidine (10 mM), isoleucine (10 mM), leucine (10 mM), lysine (10 mM), methionine (10 mM), phenylalanine (10 mM), proline (10 mM), serine (10 mM), threonine (10 mM), tryptophan (10 mM), tyrosine (10 mM), valine (10 mM), ornithine (10 mM), taurine (10 mM), or hydroxyproline (10 mM) was added, and Ca ion concentration-dependent Cl response current was measured. […] As for the aforementioned amino acids, the activation activity was reported in Proc. Natl. Acad. Sci. USA, 2000 Apr. 25, 97(9):4814-9.
# Calcium receptor activation activity of D-cysteine was evaluated by using the method described in Example 13. That is, oocytes containing either cRNA of the calcium receptor or sterilized water were prepared, and voltage-clamped at −70 mV by the double electrode voltage clamp method. To the voltage-clamped oocytes, D-cysteine (10 mM), L-cysteine (10 mM), D-tryptophan (10 mM), or L-tryptophan (10 mM) was added, and Ca ion concentration-dependent Cl response current was measured.
# Calcium receptor activation activity of peptides was evaluated by using the method described in Example 13. That is, oocytes containing either cRNA of the calcium receptor or sterilized water were prepared, and voltage-clamped at −70 mV by the double electrode voltage clamp method.
# Calcium receptor activation activity of peptides was evaluated in the same manner as that of Example 17. Each of the peptides shown in Table 2 was added to voltage-clamped oocytes at 1000 μM, 300 μM, 100 μM, 30 μM, 10 μM, 3 μM, 1 μM, 0.3 μM, and 0.1 μM, and Ca ion concentration-dependent Cl response current was measured.
# [1] = Quantitative sensory evaluation test of kokumi-imparting activity in water with sodium glutamate, inosine monophosphate and sodium chloride; assay type: in vivo, human; conditions: control 0, glutathione 3 points
# Procedure: Sample solutions that became acidic after dissolution of the samples were adjusted to pH 6.8 to 7.2 with NaOH before use. Sensory evaluation scores were used for evaluation based on the control sample (0 points) and the glutathione sample (3 points), and the test was performed with n=3.
# The sample solutions that became acidic after dissolution of the samples were adjusted to pH 6.8 to 7.2 with NaOH before use. Sensory evaluation scores were used for evaluation based on the control sample (0 points) and the glutathione sample (3 points), and the test was performed with n=5.
# Sample solutions that became acidic after dissolution of the samples were adjusted to pH 6.8 to 7.2 with NaOH before use. Sensory evaluation scores were used for evaluation based on the control sample (0 points) and the glutathione sample (3 points), and the test was performed with n=12.
compound,measurement,setting,value
[γGlu]-Val-Gln,Activity (lowest concentration for which current was detected),human calcium receptor,10 µM
[γGlu]-Val-Cys,Activity (lowest concentration for which current was detected),human calcium receptor,10 µM
Leu-Asp,calcium receptor activation activity (Ca ion concentration-dependent Cl response current),human calcium receptor; 1 mM peptide,definitive calcium receptor activation activity
γ-Glu-Cys(S-Me)-Gly,Activity (lowest concentration for which current was detected),human calcium receptor,3 µM
[γGlu]-Val-Phe,Activity (lowest concentration for which current was detected),human calcium receptor,30 µM
Gly-Cys,calcium receptor activation activity (Ca ion concentration-dependent Cl response current),human calcium receptor; 500 μM peptide,definitive calcium receptor activation activity
Cys-Gly,calcium receptor activation activity (Ca ion concentration-dependent Cl response current),human calcium receptor; 1 mM peptide,definitive calcium receptor activation activity
[γGlu]-Val-His,Activity (lowest concentration for which current was detected),human calcium receptor,100 µM
[γGlu]-Val-Thr,Activity (lowest concentration for which current was detected),human calcium receptor,1000 µM
[γGlu]-Val-Asn,Activity (lowest concentration for which current was detected),human calcium receptor,30 µM
"N[C@@H](Cc1ccc(O)cc1)C(=O)O [tyrosine, reference compound]",calcium receptor activation activity (Ca ion concentration-dependent Cl response current),human calcium receptor; 10 mM amino acid,definite calcium receptor activation activity
γ-Glu-t-Leu,Activity (lowest concentration for which current was detected),human calcium receptor,100 µM
[γGlu]-Val-Pro,Activity (lowest concentration for which current was detected),human calcium receptor,30 µM
[γGlu]-Ser-Gly,Activity (lowest concentration for which current was detected),human calcium receptor,30 µM
[γGlu]-Val,calcium receptor activation activity (Ca ion concentration-dependent Cl response current),human calcium receptor; 50 μM peptide,definitive calcium receptor activation activity
same,Intensity of kokumi: Aftertaste,"[1]; Table 5, 0.1 g/dl, n=3",1.0 points
same,Intensity of kokumi: First and middle taste,"[1]; Table 5, 0.1 g/dl, n=3",3.0 points
same,Intensity of kokumi: Aftertaste,"[1]; Table 6, 0.1 g/dl, n=5",1.0 points
same,Intensity of kokumi: First and middle taste,"[1]; Table 6, 0.1 g/dl, n=5",3.0 points
"N[C@@H](Cc1ccccc1)C(=O)O [phenylalanine, reference compound]",calcium receptor activation activity (Ca ion concentration-dependent Cl response current),human calcium receptor; 10 mM amino acid,definite calcium receptor activation activity
[γGlu]-Ala,calcium receptor activation activity (Ca ion concentration-dependent Cl response current),human calcium receptor; 50 μM peptide,definitive calcium receptor activation activity
same,Intensity of kokumi: Aftertaste,"[1]; Table 5, 0.1 g/dl, n=3",0.2 points
same,Intensity of kokumi: First and middle taste,"[1]; Table 5, 0.1 g/dl, n=3",0.5 points
"N[C@@H](Cc1c[nH]cn1)C(=O)O [histidine, reference compound]",calcium receptor activation activity (Ca ion concentration-dependent Cl response current),human calcium receptor; 10 mM amino acid,definite calcium receptor activation activity
N[C@H](CS)C(=O)O [D-cysteine],calcium receptor activation activity (Ca ion concentration-dependent Cl response current),human calcium receptor; 10 mM amino acid,definitive calcium receptor activation activity
Asp-Gly,calcium receptor activation activity (Ca ion concentration-dependent Cl response current),human calcium receptor; 1 mM peptide,definitive calcium receptor activation activity
Glu-Cys,calcium receptor activation activity (Ca ion concentration-dependent Cl response current),human calcium receptor; 50 μM peptide,definitive calcium receptor activation activity
[γGlu]-[γGlu]-Val,Activity (lowest concentration for which current was detected),human calcium receptor,1000 µM
N[C@@H](CCC(=O)N[C@@H](CSN=O)C(=O)NCC(=O)O)C(=O)O [γ-Glu-Cys(SNO)-Gly],calcium receptor activation activity (Ca ion concentration-dependent Cl response current),human calcium receptor; 50 μM peptide,definitive calcium receptor activation activity
"N[C@@H](Cc1c[nH]c2ccccc12)C(=O)O [tryptophan, reference compound]",calcium receptor activation activity (Ca ion concentration-dependent Cl response current),human calcium receptor; 10 mM amino acid,definite calcium receptor activation activity
[γGlu]-Val-Glu,Activity (lowest concentration for which current was detected),human calcium receptor,1000 µM
γ-Glu-Val-Asp,Activity (lowest concentration for which current was detected),human calcium receptor,1000 µM
γ-Glu-Cys(S-allyl)-Gly,Activity (lowest concentration for which current was detected),human calcium receptor,100 µM
γ-Glu-Orn,calcium receptor activation activity (Ca ion concentration-dependent Cl response current),human calcium receptor; 500 μM peptide,definitive calcium receptor activation activity
[γGlu]-Val-[Orn],Activity (lowest concentration for which current was detected),human calcium receptor,100 µM
"N[C@@H](CS)C(=O)O [cysteine, reference compound]",calcium receptor activation activity (Ca ion concentration-dependent Cl response current),human calcium receptor; 10 mM amino acid,definite calcium receptor activation activity
[γGlu]-Gly-Gly,Activity (lowest concentration for which current was detected),human calcium receptor,30 µM
γ-Glu-Tau,Activity (lowest concentration for which current was detected),human calcium receptor,300 µM
[γGlu]-Val-Met,Activity (lowest concentration for which current was detected),human calcium receptor,1000 µM
[γGlu]-[Abu]-Gly,Activity (lowest concentration for which current was detected),human calcium receptor,3 µM
same,Intensity of kokumi: Aftertaste,"[1]; Table 7, 0.01 g/dl, n=12",2.0 points
same,Intensity of kokumi: First and middle taste,"[1]; Table 7, 0.01 g/dl, n=12",3.0 points
Cys-Met,calcium receptor activation activity (Ca ion concentration-dependent Cl response current),human calcium receptor; 1 mM peptide,definitive calcium receptor activation activity
[γGlu]-Val-Ser,Activity (lowest concentration for which current was detected),human calcium receptor,30 µM
[γGlu]-Thr,calcium receptor activation activity (Ca ion concentration-dependent Cl response current),human calcium receptor; 50 μM peptide,definitive calcium receptor activation activity
[γGlu]-Met,calcium receptor activation activity (Ca ion concentration-dependent Cl response current),human calcium receptor; 500 μM peptide,definitive calcium receptor activation activity
same,Intensity of kokumi: Aftertaste,"[1]; Table 5, 0.1 g/dl, n=3",0.4 points
same,Intensity of kokumi: First and middle taste,"[1]; Table 5, 0.1 g/dl, n=3",1.5 points
[γGlu]-Val-Arg,Activity (lowest concentration for which current was detected),human calcium receptor,1000 µM
[γGlu]-Val-Val,Activity (lowest concentration for which current was detected),human calcium receptor,1000 µM
[γGlu]-Val-Lys,Activity (lowest concentration for which current was detected),human calcium receptor,1000 µM
[γGlu]-Cys,calcium receptor activation activity (Ca ion concentration-dependent Cl response current),human calcium receptor; 50 μM peptide,definitive calcium receptor activation activity
same,Intensity of kokumi: Aftertaste,"[1]; Table 6, 0.1 g/dl, n=5",2.0 points
same,Intensity of kokumi: First and middle taste,"[1]; Table 6, 0.1 g/dl, n=5",2.0 points
[γGlu]-Gly,calcium receptor activation activity (Ca ion concentration-dependent Cl response current),human calcium receptor; 500 μM peptide,definitive calcium receptor activation activity
